Assay results from article PMC6332446, “Acylphloroglucinol Derivatives from the South African Helichrysum niveum and Their Biological Activities” (Molecules, 2015).

Tests used:
[1] = ORAC assay, peroxyl radical absorbance capacity (ORACROO); conditions: trolox equivalents; AAPH, 37 °C; ± % STDEV
Protocol: (§1) Automated Oxygen Radicals Absorbance Capacity (ORAC) Assay: ORAC was measured according to the method previously described. The method measures the antioxidant scavenging capacity for (a) peroxyl radicals generated by thermal decomposition of 2,2ʹ-azobis ([…]) dihydrochloride (AAPH; ORACROO assay); (b) hydroxyl radical (ORACOH assay), generated by H2O2-Cu^2+ (H2O2, 0.3%; Cu^2+ [as CuSO4], 18 μM, or (c) Cu^2+ [as CuSO4], 18 μM as a transition metal oxidant at 37 °C. ORAC values were expressed as micromoles of trolox equivalents (TE) per milligram of test sample, except when Cu^2+ (without H2O2) was used as an oxidant in the assay. In the presence of Cu^2+ without H2O2, test samples acted as prooxidants rather than antioxidants in the ORAC assay. The copper-initiated prooxidant activity was calculated using [(AreaBlank − AreaSample)/AreaBlank] × 100 and expressed as prooxidant units; one unit equals the prooxidant activity that reduces the area under the fluorescein decay curve by 1% in the ORAC assay.

[2] = ORAC assay, hydroxyl radical absorbance capacity (ORACOH); conditions: trolox equivalents; H2O2 0.3%, Cu2+ 18 μM, 37 °C; ± % STDEV
Protocol: as §1

[3] = Copper-initiated prooxidant activity in the ORAC assay; conditions: Cu2+ 18 μM without H2O2, 37 °C; one unit = 1% reduction of area under fluorescein decay curve
Protocol: as §1

[4] = Trolox equivalent absorbance capacity (TEAC) assay; conditions: trolox equivalents; absorbance 734 nm, 25 °C
Protocol: Trolox Equivalent Absorbance Capacity (TEAC) Assay: The total antioxidant capacity of the test samples in terms of TEAC were measured using a previously described method. Absorbance was read at 734 nm at 25 °C in a plate reader and the results were expressed as μM trolox equivalents per milligram dry weight (μM TE/g DW) of the test samples.

[5] = Ferric-ion reducing antioxidant power (FRAP) assay; conditions: ascorbic acid equivalents; absorbance 593 nm; ± % STDEV
Protocol: Ferric-Ion Reducing Antioxidant Power (FRAP) Assay: Working FRAP reagent was prepared in accordance to the method described previously. Absorbance was measured at 593 nm. L-ascorbic acid was used as a standard and the results were expressed as μM ascorbic acid equivalents per milligram dry weight (μM AAE/g DW) of the test samples.

[6] = target: mushroom tyrosinase; assay: Tyrosinase enzyme assay; format: biochemical; conditions: L-Tyrosine substrate; samples screened at 100.00 μg/mL upper limit
Protocol: Tyrosinase Enzyme Assay: The tyrosinase inhibitory activity was measured using the spectrophotometric method previously described. Samples were dissolved in DMSO to a stock solution of 1 mg/mL, and further dilutions were then done with 50 mM sodium phosphate buffer (pH 6.5) for all working solutions. […] In the wells of a 96-well plate, 70 µL of each sample working solution was combined with 30 μL of tyrosinase (500 Units/mL in sodium phosphate buffer) in triplicate. After incubation at room temperature for 5 min, 110 μL of substrate (2 mM L-Tyrosine) was added to each well. Final concentrations of the crude extract, isolated compounds, and positive control ranged from 1.0–100 μg/mL. Incubation commenced for 30 min at room temperature and the enzyme activity was determined by measuring the absorbance at 490 nm. The percentage of tyrosinase inhibition was calculated as follows: Tyrosinase inhibition (%) = [(A − B) − (C − D)]/(A − B) × 100 (1) where A is the absorbance of the control with the enzyme, B is the absorbance of the control without the enzyme, C is the absorbance of the test sample with the enzyme and D is the absorbance of the test sample without the enzyme.

[7] = target: T1, elastase from porcine pancrease (Sus scrofa, UniProt P00772); assay: biochemical; conditions: SANA substrate; samples screened at 100.00 μg/mL upper limit; read-out: Inhibitory Activities IC50, Elastase (converted)
T1 construct: from tissue; host or cells: porcine pancreas
T1 sequence (P00772 27-266): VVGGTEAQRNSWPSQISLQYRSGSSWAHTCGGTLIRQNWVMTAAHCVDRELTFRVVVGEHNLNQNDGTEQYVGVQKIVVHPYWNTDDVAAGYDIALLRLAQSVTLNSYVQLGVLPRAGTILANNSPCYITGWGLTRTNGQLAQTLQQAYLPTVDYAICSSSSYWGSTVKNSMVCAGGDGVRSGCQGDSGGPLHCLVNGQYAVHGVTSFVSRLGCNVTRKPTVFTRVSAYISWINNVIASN
Protocol: Elastase Inhibition Assay: Inhibition of elastase by the test samples was assayed using N-succyl-(Ala)-3-nitroanilide (SANA) as the substrate, monitoring the release of p-nitroanilide by the method described previously. The inhibitory activity determined the intensity of color released during cleavage of SANA by the action of elastase. Briefly, 1 mM SANA was prepared in 0.1 M Tris-HCl buffer pH 8.0 and 200 μL of this solution was added to the 20 μL of sample solution in a 96-Well plate. The mixtures were vortexed and preincubated for 10 min at 25 °C and then 20 μL of elastase from porcine pancrease (0.03 Units/mL) was added. The mixtures were further incubated for 10 min and the absorbance was measured at 410 nm. Methanol was used as control, while oleanolic acid used as a positive control.

[8] = target: Acetylcholinesterase (AChE) (Homo sapiens, UniProt P22303); assay: biochemical; conditions: 500.00 μg/mL upper concentration limit; read-out: Inhibitory Activities IC50, Acetylcholinesterase (converted)
Chain of Acetylcholinesterase (AChE) (P22303 32-614, species assumed): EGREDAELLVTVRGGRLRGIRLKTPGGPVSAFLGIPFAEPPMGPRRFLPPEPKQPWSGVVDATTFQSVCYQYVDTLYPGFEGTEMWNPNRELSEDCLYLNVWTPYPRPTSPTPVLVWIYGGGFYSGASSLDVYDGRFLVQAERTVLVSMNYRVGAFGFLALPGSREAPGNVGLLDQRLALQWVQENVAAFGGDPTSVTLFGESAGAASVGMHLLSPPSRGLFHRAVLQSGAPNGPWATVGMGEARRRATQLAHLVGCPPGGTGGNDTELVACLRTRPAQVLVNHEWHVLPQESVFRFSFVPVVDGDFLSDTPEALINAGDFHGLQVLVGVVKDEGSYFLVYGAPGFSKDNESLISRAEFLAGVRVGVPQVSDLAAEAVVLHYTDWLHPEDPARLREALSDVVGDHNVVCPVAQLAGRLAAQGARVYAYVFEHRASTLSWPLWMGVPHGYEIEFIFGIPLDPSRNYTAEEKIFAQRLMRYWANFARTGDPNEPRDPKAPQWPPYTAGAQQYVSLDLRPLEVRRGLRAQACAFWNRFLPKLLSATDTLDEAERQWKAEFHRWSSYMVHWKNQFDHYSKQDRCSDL
Protocol: Acetylcholinesterase Inhibition Assay: Acetylcholinesterase (AChE) inhibitory activity was measured using Ellman’s method as previously described with minor modifications. AChE catalysis the hydrolysis of acetythiocholine iodide (ACTI as substrate) to thiocholine, which can then react with Ellman’s reagent (DTNB) to produce 5-thio-2-nitrobenzoate (yellow color). In the presence of samples (inhibitors), the release of 5-thio-2-nitrobenzoate (yellow color) is reduced and it is monitored by measuring the absorbance at 450 nm.
In a 96-Well plate, the reaction mixture contains 50 µL of samples pre-incubated with 125 µL of 3 mM 5,5ʹ-Dithiobis-(2-nitrobenzoic acid), and 25 µL AChE (2.0 U/mL), in 50 mM tris-HCl buffer (pH 8.0), with 0.1% bovine serum albumin (BSA) for 15 minutes at 25 °C. Subsequently, 25 µL (15 mM) ACTI was added to the incubation mixture and further incubated for 10 min at 25 °C. […] Absorbance was recorded at 450 nm. The percent AChE inhibitory activity is given by: [A0 − (B − C)]/A0 × 100 (3) where A0 = full enzymatic reaction; B = Activity in the presence of sample; and C = Activity without sample.

[9] = test system: Rat liver microsomes; conditions: Fe2+-induced, TBARs, samples screened at 50.00 μg/mL, ± STDEV

For CCC(C)C(=O)c1c(O)cc(O)c(CC=C(C)C)c1O (stereo not drawn) [Compound 7, 1-(2-methylbutanone)-3-prenyl-phloroglucinol], the “Peroxyl (ORAC peroxyl radical absorbance capacity)” value (“Peroxyl” for short) [1] was 14139.74 ± 5.96 µM TE/g, the “Hydroxyl (ORACOH)” value [2] was 23.12 ± 18.94 × 10^6 µMTE/g and the “Prooxidant (copper-initiated prooxidant activity)” value (from here on “Prooxidant”) [3] was 73.87 ± 1.10 prooxidant units. For the same compound, the TEAC [4] was 9998.71 ± 2.66 μM TE/g DW, the FRAP [5] was 1029.03 ± 0.66 µMAAE/g and the “Inhibitory Activities IC50, Tyrosinase” value [6] was >100.00 µg/mL. The IC50 [7] was 240 µM, the IC50 [8] was 936 µM and the “Anti-Lipid peroxidation IC50” value [9] was 27.49 ± 3.19 µg/mL.
For CC(C)=CCOc1cc(O)c(C(=O)C(C)C)c(O)c1 [Compound 5, 1-(2-methylpropanone)-4-O-prennyl-phloroglucinol], the “Peroxyl” value [1] was 6053.87 ± 18.67 µM TE/g, the “Hydroxyl (ORACOH)” value [2] was 5.60 ± 0.79 × 10^6 µMTE/g and the “Prooxidant” value [3] was 12.33 ± 6.62 prooxidant units. For the same compound, the TEAC [4] was 2673.62 ± 1.68 μM TE/g DW, the FRAP [5] was 446.64 ± 8.07 µMAAE/g and the “Inhibitory Activities IC50, Tyrosinase” value [6] was >100.00 µg/mL. For the same compound, the IC50 [7] was 263 µM, the IC50 [8] was 957 µM and the “Anti-Lipid peroxidation IC50” value [9] was 20.22 ± 2.72 µg/mL.
With CCCC(=O)c1c(O)cc(O)c(CC=C(C)C)c1O [Compound 6, 1-(butanone)-3-prenyl-phloroglucinol] the “Peroxyl” value [1] was 13544.93 ± 12.13 µM TE/g, the “Hydroxyl (ORACOH)” value [2] was 18.07± 3.47 × 10^6 µMTE/g and the “Prooxidant” value [3] was 64.37 ± 0.22 prooxidant units. For the same compound, the TEAC [4] was 4316.61 ± 1.06 μM TE/g DW, the FRAP [5] was 1183.52 ± 6.20 µMAAE/g and the “Inhibitory Activities IC50, Tyrosinase” value [6] was >100.00 µg/mL. For the same compound, the IC50 [7] was 134 µM, the IC50 [8] was 957 µM and the “Anti-Lipid peroxidation IC50” value [9] was 30.80 ± 2.12 µg/mL.
